Measured values as given in patent publication US4952580A, “Pesticidal polyhaloalkene derivatives” (priority 1988, dated 1990).
Read-outs that look alike come from different tables or passages of the source.

Tests used:
[1] = test system: root-knot nematode (Meloidogyne incognita); test: Initial Root-Knot Nematicidal Activity; assay type: in vivo; settings: 336 h, read-out: Percent Control; for pest or weed control at 0.312 ppm: Table 2, Application Rate 0.312 ppm; for pest or weed control at 0.625 ppm: Table 2, Application Rate 0.625 ppm; for pest or weed control at 1.25 ppm: Table 2, Application Rate 1.25 ppm; for pest or weed control at 0.313 ppm: Table 2, Application Rate 0.313 ppm; for pest or weed control at 0.078 ppm: Table 2, Application Rate 0.078 ppm; for pest or weed control at 0.156 ppm: Table 2, Application Rate 0.156 ppm
Experimental: (§1) Compounds of this invention were tested as follows for nematicidal and anthelmintic activity as dust formulations (initial and residual activity) and as acetone/water formulations (systemic activity). The formulations are described above.
The activity against root-knot nematode (Meloidogyne incognita) was determined by incorporating the compound of the invention in nematode infested soil at rates in the range of 10 ppm to 0.078 ppm of compound. Several tomato or cucumber seedlings were planted in the nematode infested soil. Two weeks after planting the test pots were evaluated to ascertain the degree of galling (swelling) on the roots of the plants, indicating the control provided by the test chemical.
The results expressed as precent control (determined by knot index) are set forth as averages in Table 2 (appended). Knot index is a numerical designation assigned at evaluation, having the following meanings:
Percent control is related to knot index as follows:
When the Knot Index is between 0 and 1 it is further subdivided as follows to indicate how close the percent control is to 75% or 100%: […]

[2] = test system: Caenorhabditis elegans; test: C. Elegans Nematode Screening Test and Evaluation (in-vitro); settings: for inhibition at 5 ppm / mortality at 5 ppm / inhibition at 1.25 ppm / mortality at 1.25 ppm / inhibition at 2.5 ppm / mortality at 2.5 ppm: Caenorhabditis elegans; for inhibition at 5 ppm / inhibition at 1.25 ppm / inhibition at 2.5 ppm: read-out: Percent Inhibition of Reproduction; for mortality at 5 ppm / mortality at 1.25 ppm / mortality at 2.5 ppm: read-out: Percent Mortality
Experimental: This in-vitro test using the free-living nematode Caenorhabditis elegans, is a modification of the assay developed by Simpkin and Coles, J. Chem. Tech. […] One milliliter of a test medium consisting of 5 mg ampicillin, 10,000 units of mycostatin and 10 ml of a dense suspension of Escherichia coli per 100 ml of a buffer solution, was pipetted into each well of a 24-well microtiter plate. The candidate nematicide, suspended at the appropriate concentration in dimethylsulfoxide, was added to the wells in […] volumes. Each rate of application was replicated two to three times. After thorough mixing of the contents of each well, 50 to 100 μl of a nematode suspension in a buffer was added so that each well received 10-15 nematodes. After the nematodes were added, the microtiter plates were incubated at 20° C. for 5-6 days.
The effect of the candidate nematicide on the survival and the reproduction of C. elegans was then evaluated by comparison of the level of population developed in the treated wells with that in untreated wells. Specific effects on population development, such as reduced egg hatch or molting disruption, were noted if they were evident.

[3] = test system: root-knot nematode; test: Soil Mobility against root-knot nematode; assay type: in vivo, Meloidogyne incognita; settings: 336 h, Table 7a, 5% dust, 5 ppm, read-out: Percent Control
Experimental: as §1
The ability of nematicidal compounds of the invention to move through nematode-infested soil […] infested soil, and subsequently eluting the soil with 15 cm of water (equivalent to 15 cm of rainfall) into a series of two or more pots of untreated, but nematode-infested, soil. Specifically, the pots were 8 cm diameter plastic pots containing a 10 cm^3 layer of sand over a coarse grade filter paper disc. Sufficient soil was placed over the sand to fill the pots, and a second filter paper disc was placed over the soil. Each test compound-treated pot was nested over a series of two or more pots containing untreated, but nematode-infested soil, also containing sand filter paper discs as described for the treated soil pots. Fifteen cm of water was slowly dripped into the top pots and the pots were allowed to drain for 16-18 hours to remove excess water. The top filter of each pot was then removed and the pots were planted with a cucumber or tomato seedling. […] "Knot Index" and "Percent Control" are as defined in the initial root-knot nematode tests above.

[4] = test system: lesion nematode; test: Lesion Nematode Test; assay type: in vivo; settings: read-out: Percent Control
Experimental: as §1
The procedure was substantially the same as in the stunt nematode test described above except that pea seedlings were used. The results (Table 5 appended) show good control with many of the compounds at the application rates tested as compared with untreated samples (no control). "Percent Control" is defined as follows: [formula]

[5] = Table 2, Application Rate 2.5 ppm
[6] = Table 2, Application Rate 5.0 ppm
[7] = Table 2, Application Rate 10.0 ppm

## O=[N+]([O-])c1ccc(CSc2nsc(SCCC(F)=C(F)F)n2)cc1 [Compound 26, 3-(4-nitrophenylmethylthio)-5-(3,4,4-trifluoro-3-butenylthio)-1,2,4-thiadiazole]
[1]
  pest or weed control at 0.312 ppm: 0%
  pest or weed control at 0.625 ppm: 0%
  pest or weed control at 1.25 ppm: 63%
[1]; [5]
  pest or weed control at 2.5 ppm: 86%
[2]; Table 9 screen, 5 ppm
  inhibition at 5 ppm: 100%
  mortality at 5 ppm: 100%
[2]; Table 10 evaluation, 5 ppm
  mortality at 5 ppm: 100%
[2]; Table 10 evaluation, 1.25 ppm
  inhibition at 1.25 ppm: 100%
  mortality at 1.25 ppm: 100%
[2]; Table 10 evaluation, 2.5 ppm
  inhibition at 2.5 ppm: 100%
  mortality at 2.5 ppm: 100%

## O=C(OCCC(F)=C(F)F)c1cccs1 [Compound 20]
[1]
  pest or weed control at 0.313 ppm: 0%
  pest or weed control at 0.625 ppm: 6%
  pest or weed control at 1.25 ppm: 63%
[1]; [5]
  pest or weed control at 2.5 ppm: 98%

## FC(F)=C(F)CCSc1nc(Cc2ccc(F)cc2)no1 [Compound 38, 3-(4-fluorophenylmethyl)-5-(3,4,4-trifluoro-3-butenylthio)-1,2,4-oxadiazole]
[1]
  pest or weed control at 0.312 ppm: 63%
  pest or weed control at 0.625 ppm: 76%
  pest or weed control at 1.25 ppm: 96%
[1]; [5]
  pest or weed control at 2.5 ppm: 98%
[3]; BOTTOM container
  pest or weed control at 5 ppm: 0%
[3]; MIDDLE container
  pest or weed control at 5 ppm: 0%
[3]; TOP container
  pest or weed control at 5 ppm: 0%

## OCCCC(F)=C(F)F [Compound 7, 4,5,5-trifluoro-4-penten-1-ol]
[1]; [5]
  pest or weed control at 2.5 ppm: 25%
[1]; [6]
  pest or weed control at 5 ppm: 44%
[1]; [7]
  pest or weed control at 10 ppm: 79%

## O=C(OCCC(F)=C(F)F)c1ccc[nH]1 [Compound 22, (3,4,4-trifluoro-3-butenyl) 2-pyrrolecarboxylate]
[1]
  pest or weed control at 0.313 ppm: 0%
  pest or weed control at 0.625 ppm: 0%
  pest or weed control at 1.25 ppm: 44%
[1]; [5]
  pest or weed control at 2.5 ppm: 96%

## O=C(OCCC(F)=C(F)F)c1ccc(Cl)cc1 [Compound 4, (3,4,4-trifluoro-3-butenyl) 4-chlorobenzoate]
[1]
  pest or weed control at 0.313 ppm: 38%
  pest or weed control at 0.625 ppm: 44%
  pest or weed control at 1.25 ppm: 56%
[1]; [5]
  pest or weed control at 2.5 ppm: 99%

## O=C(OCCC(F)=C(F)F)C(F)(F)C(F)(F)F [Compound 19, (3,4,4-trifluoro-3-butenyl) pentafluoropropionate, mono diethyl etherate]
[1]; [5]
  pest or weed control at 2.5 ppm: 58%
[1]; [6]
  pest or weed control at 5 ppm: 75%
[1]; [7]
  pest or weed control at 10 ppm: 69%

## O=C1CCC(=O)N1CCC(F)=C(F)F [Compound 5, N-(3,4,4-trifluoro-3-butenyl)succinimide]
[1]
  pest or weed control at 0.313 ppm: 0%
  pest or weed control at 0.625 ppm: 6%
  pest or weed control at 1.25 ppm: 70%
[1]; [5]
  pest or weed control at 2.5 ppm: 81%

## O=C1c2ccccc2S(=O)(=O)N1CCC(F)=C(F)F [Compound 24, N-(3,4,4-trifluoro-3-butenyl)saccharine]
[1]; [5]
  pest or weed control at 2.5 ppm: 19%
[1]; [6]
  pest or weed control at 5 ppm: 63%
[1]; [7]
  pest or weed control at 10 ppm: 78%

## FC(F)=C(F)CCSc1nc(-c2ccc(Cl)cc2)no1 [Compound 39, 3-(4-chlorophenyl)-5-(3,4,4-trifluoro-3-butenylthio)-1,2,4-oxadiazole]
[1]
  pest or weed control at 0.312 ppm: 19%
  pest or weed control at 0.625 ppm: 84%
  pest or weed control at 1.25 ppm: 98%
[1]; [5]
  pest or weed control at 2.5 ppm: 100%
[2]; Table 9 screen, 5 ppm
  inhibition at 5 ppm: 100%
  mortality at 5 ppm: 100%
[2]; Table 10 evaluation, 5 ppm
  mortality at 5 ppm: 100%
  Percent Mortality: 100%
[2]; Table 10 evaluation, 1.25 ppm
  inhibition at 1.25 ppm: 100%
  mortality at 1.25 ppm: 67%
  Percent Mortality: 58%
[2]; Table 10 evaluation, 2.5 ppm
  inhibition at 2.5 ppm: 100%
  mortality at 2.5 ppm: 100%
  Percent Mortality: 100%

## FC(F)=C(F)CCSc1nnc(SCc2ccccc2F)s1 [Compound 34, 2-(2-fluorophenylmethylthio)-5-(3,4,4-trifluoro-3-butenylthio)-1,3,4-thiadiazole]
[1]
  pest or weed control at 0.078 ppm: 38%
  pest or weed control at 0.156 ppm: 64%
  pest or weed control at 0.312 ppm: 86%
  pest or weed control at 0.625 ppm: 99%
  pest or weed control at 1.25 ppm: 99%
[1]; [5]
  pest or weed control at 2.5 ppm: 100%
[4]; Table 5, rate 2.5 ppm
  pest or weed control at 2.5 ppm: 52%
[2]; Table 9 screen, 5 ppm
  inhibition at 5 ppm: 100%
  mortality at 5 ppm: 25%
[2]; Table 10 evaluation, 5 ppm
  mortality at 5 ppm: 100%
[2]; Table 10 evaluation, 1.25 ppm
  inhibition at 1.25 ppm: 0%
  mortality at 1.25 ppm: 0%
[2]; Table 10 evaluation, 2.5 ppm
  inhibition at 2.5 ppm: 100%
  mortality at 2.5 ppm: 100%
[3]; BOTTOM container
  pest or weed control at 5 ppm: 8%
[3]; MIDDLE container
  pest or weed control at 5 ppm: 67%
[3]; TOP container
  pest or weed control at 5 ppm: 98%

## FC(F)=C(F)CCSc1cccs1 [Compound 10, 2-(3,4,4-trifluoro-3-butenylthio)thiopene]
[1]
  pest or weed control at 0.625 ppm: 63%
  pest or weed control at 1.25 ppm: 81%
  pest or weed control at 2.5 ppm: 95%
[1]; [6]
  pest or weed control at 5 ppm: 99%
[4]
  pest or weed control at 2.5 ppm: 33%

## FC(F)=C(F)CCSCc1cc2ccccc2s1 [Compound 11, 2-(3,4,4-trifluoro-3-butenylthiomethyl)-thianaphthene]
[1]
  pest or weed control at 0.625 ppm: 0%
  pest or weed control at 1.25 ppm: 67%
[1]; [5]
  pest or weed control at 2.5 ppm: 78%
[1]; [6]
  pest or weed control at 5 ppm: 83%

## O=C(CSC1=NCCS1)OCCC(F)=C(F)F [Compound 23, (3,4,4-trifluoro-3-butenyl) [2-(4,5-dihydrothiazolyl)thio]acetate]
[1]; [5]
  pest or weed control at 2.5 ppm: 76%
[1]; [6]
  pest or weed control at 5 ppm: 84%
[1]; [7]
  pest or weed control at 10 ppm: 96%

## O=[N+]([O-])c1ccc(-c2noc(SCCC(F)=C(F)F)n2)cc1 [Compound 40, 3-(4-nitrophenyl)-5-(3,4,4-trifluoro-3-butenylthio)-1,2,4-oxadiazole]
[1]
  pest or weed control at 0.312 ppm: 0%
  pest or weed control at 0.625 ppm: 56%
  pest or weed control at 1.25 ppm: 84%
[1]; [5]
  pest or weed control at 2.5 ppm: 99%
[2]; Table 10 evaluation, 5 ppm
  inhibition at 5 ppm: 100%
  mortality at 5 ppm: 100%
[2]; Table 10 evaluation, 1.25 ppm
  inhibition at 1.25 ppm: 100%
  mortality at 1.25 ppm: 100%
[2]; Table 10 evaluation, 2.5 ppm
  inhibition at 2.5 ppm: 100%
  mortality at 2.5 ppm: 100%

## C#CCSc1nnc(SCCC(F)=C(F)F)s1 [Compound 14, 2-propargylthio-5-(3,4,4-trifluoro-3-butenylthio)-1,3,4-thiadiazole]
[1]
  pest or weed control at 0.313 ppm: 0%
  pest or weed control at 0.625 ppm: 0%
  pest or weed control at 1.25 ppm: 25%
[1]; [5]
  pest or weed control at 2.5 ppm: 83%

## FC(F)=C(F)CCSc1nnc(-c2ccc(Cl)cc2)s1 [Compound 37, 2-(4-chlorophenyl)-5-(3,4,4-trifluoro-3-butenylthio)-1,3,4-thiadiazole]
[1]
  pest or weed control at 0.078 ppm: 0%
  pest or weed control at 0.156 ppm: 0%
  pest or weed control at 0.312 ppm: 0%
  pest or weed control at 0.625 ppm: 0%
[2]; Table 9 screen, 5 ppm
  inhibition at 5 ppm: 100%
  mortality at 5 ppm: 100%
[2]; Table 10 evaluation, 5 ppm
  mortality at 5 ppm: 100%
[2]; Table 10 evaluation, 1.25 ppm
  inhibition at 1.25 ppm: 100%
  mortality at 1.25 ppm: 100%
[2]; Table 10 evaluation, 2.5 ppm
  inhibition at 2.5 ppm: 100%
  mortality at 2.5 ppm: 100%

## O=C(OCCC(F)=C(F)F)C(F)(F)C(F)(F)C(F)(F)F [Compound 3, (3,4,4-trifluoro-3-butenyl) heptafluorobutyrate]
[1]
  pest or weed control at 2.5 ppm: 71%
  pest or weed control at 5 ppm: 83%
  pest or weed control at 10 ppm: 95%
